The values below come from ChEMBL document CHEMBL1121707, “Synthesis of 2'-deoxy-L-fucopyranosylcarminomycinone and -epsilon-pyrromycinone as well as 2'-deoxy-D-erythro-pentopyranosyldaunomycinone, -carminomycinone, and -epsilon-pyrromycinone” (1981).

SMILES strings stand for the structures.

Experiment [1] deals with Bacillus subtilis. The experiment is described as follows: Tested for antibacterial effect against Bacillus subtilis-8 at dose 12.5 ug/mL. The class given is functional.
Experiment [2] deals with Bacillus subtilis. As to the kind of experiment: Tested for antibacterial effect against Bacillus subtilis-8 at dose 25 ug/mL. Format: functional.
Experiment [3] has as its system Bacillus subtilis. As to the kind of experiment: Tested for antibacterial effect against Bacillus subtilis-8 at dose 50 ug/mL. Format: functional.
The test system of experiment [4] is Bacillus subtilis. The experiment is described as follows: Tested for antibacterial effect against Bacillus subtilis-8 at dose 6.25 ug/mL. Format: functional.
Experiment [5] has as its system L1210. The experiment is described as follows: Median survival time of treated to that of control after administration at 0.4 mg/kg intraperitoneally in BDF1 mice on day 1 in experiment 1. Format: functional, Mus musculus. The note with it: route intraperitoneal.
The subject of experiment [6] is L1210. The experiment is described as follows: Median survival time of treated to that of control after administration at 0.8 mg/kg intraperitoneally in BDF1 mice on day 1 in experiment 1. The class given is functional, Mus musculus. The note with it: route intraperitoneal.
Experiment [7] concerns L1210. The experiment is described as follows: Median survival time of treated to that of control after administration at 1.6 mg/kg intraperitoneally in BDF1 mice on day 1 in experiment 1. The class given is functional, Mus musculus. The note with it: route intraperitoneal.
In experiment [8] the test system is L1210. As to the kind of experiment: Tested for survivors on day 5 after administration at 6.4 mg/kg intraperitoneally in mice on day 1 in experiment 1. The note with it: route intraperitoneal. The class given is functional, Mus musculus.
Experiment [9] has as its system L1210. The experiment is described as follows: Median survival time of treated to that of control after administration at 12.8 mg/kg intraperitoneally in BDF1 mice on day 1 in experiment 1. Format: functional, Mus musculus. The note with it: route intraperitoneal.
Experiment [10] relates to L1210. As to the kind of experiment: Average weight change after administration at 0.4 mg/kg intraperitoneally in mice on day 1 in experiment 1. Format: functional, Mus musculus. The note with it: route intraperitoneal.
Experiment [11] relates to L1210. The experiment is described as follows: Average weight change after administration at 0.8 mg/kg intraperitoneally in mice on day 1 in experiment 1. The class given is functional, Mus musculus. The note with it: route intraperitoneal.
Experiment [12] has as its system L1210. As to the kind of experiment: Average weight change after administration at 12.8 mg/kg intraperitoneally in mice on day 1 in experiment 1. The class given is functional, Mus musculus. The note with it: route intraperitoneal.
In experiment [13] the test system is L1210. As to the kind of experiment: Average weight change after administration at 3.2 mg/kg intraperitoneally in mice on day 1 in experiment 1. Format: functional, Mus musculus. The note with it: route intraperitoneal.
Experiment [14] has as its system L1210. As to the kind of experiment: Average weight change after administration at 6.4 mg/kg intraperitoneally in mice on day 1 in experiment 1. The note with it: route intraperitoneal. The class given is functional, Mus musculus.
Experiment [15] concerns L1210. As to the kind of experiment: Median survival time of treated to that of control after administration at 6.4 mg/kg intraperitoneally in BDF1 mice on day 1 in experiment 1. The note with it: route intraperitoneal. Format: functional, Mus musculus.
The test system of experiment [16] is L1210. As to the kind of experiment: Tested for survivors on day 5 after administration at 12.8 mg/kg intraperitoneally in mice on day 1 in experiment 1. The class given is functional, Mus musculus. The note with it: route intraperitoneal.
Experiment [17] deals with L1210. The experiment is described as follows: Tested for survivors on day 5 after administration at 3.2 mg/kg intraperitoneally in mice on day 1 in experiment 1. The class given is functional, Mus musculus. The note with it: route intraperitoneal.
The test system of experiment [18] is L1210. The experiment is described as follows: Tested for survivors on day 5 after administration at 0.4 mg/kg intraperitoneally in mice on day 1 in experiment 1. The note with it: route intraperitoneal. Format: functional, Mus musculus.
The test system of experiment [19] is L1210. The experiment is described as follows: Tested for survivors on day 5 after administration at 0.8 mg/kg intraperitoneally in mice on day 1 in experiment 1. Format: functional, Mus musculus. The note with it: route intraperitoneal.
For experiment [20], the system named is L1210. As to the kind of experiment: Tested for survivors on day 5 after administration at 1.6 mg/kg intraperitoneally in mice on day 1 in experiment 1. The class given is functional, Mus musculus. The note with it: route intraperitoneal.
Experiment [21] has as its system P388. The experiment is described as follows: Median survival time of treated to that of control after administration on every 4th day at 6.25 mg/kg intraperitoneally in BDF1 mice. Format: functional, Mus musculus. The note with it: route intraperitoneal.
Experiment [22] deals with P388. The experiment is described as follows: Tested for survivors on day 5 after administration at 12.5 mg/kg intraperitoneally in mice on day 1 in experiment 2. The class given is functional, Mus musculus. The note with it: route intraperitoneal.
Experiment [23] relates to P388. As to the kind of experiment: Tested for survivors on day 5 after administration on every 4th day at 25 mg/kg intraperitoneally in mice. The note with it: route intraperitoneal. Format: functional, Mus musculus.
Experiment [24] relates to P388. As to the kind of experiment: Tested for survivors on day 5 after administration on every 4th day at 3.13 mg/kg intraperitoneally in mice. Format: functional, Mus musculus. The note with it: route intraperitoneal.
In experiment [25] the test system is P388. The experiment is described as follows: Tested for survivors on day 5 after administration on every 4th day at 50 mg/kg intraperitoneally in mice. The class given is functional, Mus musculus. The note with it: route intraperitoneal.
In experiment [26] the test system is P388. As to the kind of experiment: Median survival time of treated to that of control after administration at 3.13 mg/kg intraperitoneally in BDF1 mice. Format: functional, Mus musculus. The note with it: route intraperitoneal.
In experiment [27] the test system is P388. As to the kind of experiment: Median survival time of treated to that of control after administration on every 4th day at 12.5 mg/kg intraperitoneally in BDF1 mice. Format: functional, Mus musculus. The note with it: route intraperitoneal.
Experiment [28] deals with P388. As to the kind of experiment: Median survival time of treated to that of control after administration on every 4th day at 25 mg/kg intraperitoneally in BDF1 mice. Format: functional, Mus musculus. The note with it: route intraperitoneal.
For experiment [29], the system named is P388. The experiment is described as follows: Tested for survivors on day 5 after administration on every 4th day at 6.25 mg/kg intraperitoneally in mice. The class given is functional, Mus musculus. The note with it: route intraperitoneal.
The subject of experiment [30] is P388. The experiment is described as follows: Average weight change after administration at 3.13 mg/kg intraperitoneally in mice. Format: functional, Mus musculus. The note with it: route intraperitoneal.
Experiment [31] relates to P388. The experiment is described as follows: Average weight change after administration on every 4th day at 12.5 mg/kg intraperitoneally in mice. The class given is functional, Mus musculus. The note with it: route intraperitoneal.
Experiment [32] has as its system P388. The experiment is described as follows: Average weight change after administration on every 4th day at 25 mg/kg intraperitoneally in mice. The class given is functional, Mus musculus. The note with it: route intraperitoneal.
For experiment [33], the system named is P388. As to the kind of experiment: Average weight change after administration on every 4th day at 50 mg/kg intraperitoneally in mice. The class given is functional, Mus musculus. The note with it: route intraperitoneal.
The test system of experiment [34] is L1210. As to the kind of experiment: Average weight change after administration at 1.6 mg/kg intraperitoneally in mice on day 1 in experiment 1. The note with it: route intraperitoneal. Format: functional, Mus musculus.
Experiment [35] concerns L1210. The experiment is described as follows: Median survival time of treated to that of control after administration at 3.2 mg/kg intraperitoneally in BDF1 mice on day 1 in experiment 1. Format: functional, Mus musculus. The note with it: route intraperitoneal.
Experiment [36] has as its system P388. The experiment is described as follows: Average weight change after administration on every 4th day at 6.25 mg/kg intraperitoneally in mice. The class given is functional, Mus musculus. The note with it: route intraperitoneal.
In experiment [37] the test system is P388. The experiment is described as follows: Median survival time of treated to that of control after administration on every 4th day at 50 mg/kg intraperitoneally in BDF1 mice. The class given is functional, Mus musculus. The note with it: route intraperitoneal.
The test system of experiment [38] is Bacillus subtilis. The experiment is described as follows: Tested for antibiotic activity against Bacillus subtilis-ATTCC 6633 at dose 12.5 ug/mL via plate assay. The class given is functional.

For orientation: T/C means the ratio of treated to control.

On to `COc1cccc2c1C(=O)c1c(O)c3c(c(O)c1C2=O)C[C@@](O)(C(C)=O)C[C@@H]3O[C@H]1C[C@H](O)[C@H](O)CO1`, for which the Inhibition zone in [1] amounted to 12.5 mm; in experiment [2], 15.8 mm; in experiment [3], 18.8 mm; in experiment [4], 10 mm. Moreover, the T/C in experiment [5] is 100%; in experiment [6], 100%; in experiment [7], 86%; in [9], 107%; in experiment [15], 93%; in [21], 100%. Also, the T/C is 100% in [26]; 112% in experiment [27]; 110% in [28]; 100% in experiment [35]; 110% in experiment [37]. In addition, the Survivors in experiment [8], in experiment [16], in [17], in experiment [18], in experiment [19] and in experiment [20] was 6 in each case. Further, the Survivors in [22], in experiment [23], in experiment [24], in [25] and in experiment [29] was 6 in each case. Moreover, the Average weight change is reported as 1.5 in experiment [10]; 1.8 in experiment [11]; 2.3 in experiment [12]; 0.2 in experiment [13]; 2.4 in [14]; -2 in experiment [30]. Also, the Average weight change in [31] is given as -1.3; in [32], -0.5; in [33], 0.2; in experiment [34], 2.6; in experiment [36], -1.2.

`CC(=O)[C@]1(O)Cc2c(O)c3c(c(O)c2C(O)C1)C(=O)c1c(O)cccc1C3=O` (stereo partly drawn) [CARMINOMYCINONE] came in with an Inhibition zone in experiment [38] of 20.2 mm.
